From patent publication US11332443B2, “Derivatives of halo quinabactin” (THE REGENTS OF THE UNIVERSITY OF CALIFORNIA, priority 2015, dated 2022)

How the values were obtained:
Format in all cases: biochemical
[1] = target: T1, PYL1-HAB1 (Arabidopsis thaliana, UniProt Q8VZS8); test: PP2C activity assay, PYL1-HAB1 inhibition; settings: 200 nM test compound, 100 nM HAB1 PP2C, 200 nM receptor; read-out: % Inhibition of PYR/PYL-HAB1 at 200 nM: PYL1
T1 construct: 6xHis (N); made in house; host or cells: E. coli BL21[DE3]pLysS (stated for GST-HAB1)
T1 sequence (Q8VZS8 1-221): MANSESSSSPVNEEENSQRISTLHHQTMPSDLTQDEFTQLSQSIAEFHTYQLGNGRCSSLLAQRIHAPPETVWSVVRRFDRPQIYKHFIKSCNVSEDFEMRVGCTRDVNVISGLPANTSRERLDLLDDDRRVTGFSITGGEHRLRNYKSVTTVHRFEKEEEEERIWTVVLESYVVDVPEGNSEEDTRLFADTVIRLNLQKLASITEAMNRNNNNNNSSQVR
T1 sequence (Q9CAJ0 23-511 partner): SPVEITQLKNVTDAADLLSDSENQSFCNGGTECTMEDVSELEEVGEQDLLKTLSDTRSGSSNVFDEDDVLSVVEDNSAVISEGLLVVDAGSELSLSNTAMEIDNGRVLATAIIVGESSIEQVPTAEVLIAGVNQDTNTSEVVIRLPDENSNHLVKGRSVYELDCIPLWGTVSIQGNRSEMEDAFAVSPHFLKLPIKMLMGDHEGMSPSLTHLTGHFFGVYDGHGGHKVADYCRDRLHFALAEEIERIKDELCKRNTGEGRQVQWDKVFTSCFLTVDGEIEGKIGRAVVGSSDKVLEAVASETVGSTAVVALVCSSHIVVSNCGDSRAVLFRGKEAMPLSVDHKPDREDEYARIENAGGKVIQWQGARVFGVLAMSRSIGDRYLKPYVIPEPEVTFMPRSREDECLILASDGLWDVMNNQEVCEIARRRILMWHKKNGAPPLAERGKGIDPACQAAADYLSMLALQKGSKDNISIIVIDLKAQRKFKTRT
Excerpt: (§1) The protein HAB1, a type 2 protein phosphatase (PP2C), is inhibited by PYR/PYL proteins in dependence of abscisic acid or other agonists. The potency of an agonist correlates with the level of inhibition of the PP2C, and therefore the IC50 (receptor-HAB1) can be used to compare the relative activity of different chemical analogues. Since inhibition of PP2C correlates to inhibition of seed-germination and increase in plant water-use efficiency, it serves as a powerful tool to quantify biological potential of a chemical acting as an analogue of abscisic acid.
(§2) HAB1 and PYL proteins were expressed and purified as described in Park et al. ((2009) Science 324(5930):1068-1071), with minor modifications. GST-HAB1 was produced by expression in BL21[DE3]pLysS host cells with an expression clone containing the HAB1 cDNA cloned into pGex-2T. Transformed E. coli cells were pre-cultured overnight, transferred to LB medium and cultured at 30° C. to culture A600 of ˜0.5 OD units. The culture was then cooled on ice and MnCl2 added to 4 mM and IPTG added to 0.3 mM. After 16 hours incubation at 15° C., cells were harvested and recombinant proteins were purified on glutathione agarose as described in Park et al. To obtain 6×His-PYL receptor fusion proteins, we used expression constructs previously described by Okamoto et al. 2013, (PNAS 110(29): 12132-12137).
(§3) PP2C activity assays using recombinant receptors and PP2Cs were carried out as follows: purified proteins were pre-incubated in 160 μl assay buffer containing (100 mM Tris-HCl-pH7.9, 100 mM NaCl, 3 μg bovine serum albumin and 0.1% 2-mercaptoethanol), 1 mM MnCl2 with carrier solvent (DMSO), quinabactin or quinabactin analogs (compounds of the present invention) for 30 minutes at room temperature. Reactions were started by adding 40 μL of a reaction solution containing 25 mM 4-nitrophenyl phosphate in assay buffer, after which absorbance measurements were immediately collected (405 nm) using a Wallac plate reader. Reactions contained 100 nM HAB1 PP2C and 200 nM receptor and 200 nM test compound. Inhibition is indicated by reduced PP2C activity, which is expressed as a percentage of the control PP2C activity values that were obtained from assays containing carrier solvent instead but no test compound.

[2] = target: T2, PYR1-HAB1 (Arabidopsis thaliana, UniProt O49686); test: PP2C activity assay, PYR1-HAB1 inhibition; settings: for activity at 0.2 µM: 200 nM test compound, 100 nM HAB1 PP2C, 200 nM receptor, read-out: % Inhibition of PYR/PYL-HAB1 at 200 nM: PYR1; for IC50: dose response in triplicate, non-linear regression
T2 construct: 6xHis (N); made in house; host or cells: E. coli BL21[DE3]pLysS (stated for GST-HAB1)
T2 sequence (O49686 1-191): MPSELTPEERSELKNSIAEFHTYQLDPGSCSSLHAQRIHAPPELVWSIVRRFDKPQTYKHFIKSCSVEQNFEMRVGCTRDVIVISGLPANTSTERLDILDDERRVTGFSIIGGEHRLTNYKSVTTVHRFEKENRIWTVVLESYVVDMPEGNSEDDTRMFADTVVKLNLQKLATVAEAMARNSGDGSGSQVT
T2 sequence (Q9CAJ0 23-511 partner): T1 sequence (Q9CAJ0 23-511 partner)
Excerpt: as §1, §2
as §3, with “Reactions contained 100 nM HAB1 PP2C and 200 nM receptor and 200 nM test compound.” left out

[3] = target: T3, PYL2-HAB1 (Arabidopsis thaliana, UniProt O80992); test: PP2C activity assay, PYL2-HAB1 inhibition; settings: for percent inhibition at 0.2 µM: 200 nM test compound, 100 nM HAB1 PP2C, 200 nM receptor, read-out: % Inhibition of PYR/PYL-HAB1 at 200 nM: PYL2; for IC50: dose response in triplicate, non-linear regression
T3 construct: 6xHis (N); made in house; host or cells: E. coli BL21[DE3]pLysS (stated for GST-HAB1)
T3 sequence (O80992 1-190): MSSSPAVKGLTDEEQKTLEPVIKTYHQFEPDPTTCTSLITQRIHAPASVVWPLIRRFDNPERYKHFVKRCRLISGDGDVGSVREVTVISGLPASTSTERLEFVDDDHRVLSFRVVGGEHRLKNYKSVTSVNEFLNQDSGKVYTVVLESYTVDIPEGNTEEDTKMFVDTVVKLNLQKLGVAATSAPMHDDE
T3 sequence (Q9CAJ0 23-511 partner): T1 sequence (Q9CAJ0 23-511 partner)
Excerpt: as §1, §2
as §3, with “Reactions contained 100 nM HAB1 PP2C and 200 nM receptor and 200 nM test compound.” left out

SMILES	activity at 0.2 µM [1] [%]	activity at 0.2 µM [2] [%]	percent inhibition at 0.2 µM [3] [%]	IC50 [2] [nM]	IC50 [3] [nM]
CCCN1C(=O)CCc2cc(NS(=O)(=O)Cc3ccc(C(F)(F)F)cc3)cc(F)c21 [HQ16]	38.5	52	53.9	–	–
CCc1ccc(CS(=O)(=O)Nc2cc(F)c3c(c2)C(C)CC(=O)N3CC)cc1 (centres unmarked) [HQ35]	–	–	–	37	12
CCCN1C(=O)CCc2cc(NS(=O)(=O)Cc3cccc(Br)c3)cc(F)c21 [HQ23]	85.7	90.8	87.8	–	–
CCN1C(=O)CC(C)c2cc(NS(=O)(=O)Cc3ccc(C)nc3)cc(F)c21 (centres unmarked) [HQ55]	–	–	–	> 10000	1600
CCN1C(=O)CC(C)c2cc(NS(=O)(=O)Cc3ccc(C)cc3C)cc(F)c21 (centres unmarked) [HQ51]	–	–	–	> 10000	930
CCN1C(=O)CC(C)c2cc(NS(=O)(=O)Cc3ccc(C#N)cc3)cc(F)c21 (centres unmarked) [HQ49]	–	–	–	405	112
CCCN1C(=O)CCc2cc(NS(=O)(=O)Cc3ccc(C(F)(F)F)nc3)cc(F)c21 [HQ19]	73.4	82.7	82.3	–	–
CCN1C(=O)CC(C)c2cc(NS(=O)(=O)Cc3ccc(COC)cc3)cc(F)c21 (centres unmarked) [HQ38]	–	–	–	103	26
C=CCN1C(=O)CCc2cc(NS(=O)(=O)Cc3ccc(C)cc3)cc(F)c21 [HQ28]	–	–	–	62.3	401
CCCN1C(=O)CCc2cc(NS(=O)(=O)Cc3ccc(C)cc3)c(F)cc21 [HQ47, N-(7-fluoro-2-oxo-1-propyl-3,4-dihydroquinolin-6-yl)-1-(p-tolyl)methanesulfonamide]	–	–	–	172	182
CCCN1C(=O)CCc2cc(NS(=O)(=O)Cc3ccccc3)cc(F)c21 [HQ26]	51.4	63.6	74.8	–	–
CCCN1C(=O)CCc2cc(NS(=O)(=O)Cc3ccc([N+](=O)[O-])cc3)cc(F)c21 [HQ24]	53.2	69	76.5	–	–
CCCN1C(=O)CCc2cc(NS(=O)(=O)Cc3ccc(Cl)cc3Br)cc(F)c21 [HQ9]	86.9	105	92.2	–	–
CCCN1C(=O)CCc2cc(NS(=O)(=O)Cc3ccc(C)cc3)ccc21 [Quinabactin]	23	22	44	104	262
CCN1C(=O)CC(C)c2cc(NS(=O)(=O)Cc3ccc(Cl)nc3)cc(F)c21 (centres unmarked) [HQ56]	–	–	–	1250	486
CCCN1C(=O)CCc2cc(NS(=O)(=O)Cc3ccc(C)cc3)cc(Br)c21 [HQ40]	–	–	–	165	239
CCN1C(=O)CC(C)c2cc(NS(=O)(=O)Cc3ccc(C)cc3Br)cc(F)c21 (centres unmarked) [HQ50]	–	–	–	> 10000	4470
C=CCN1C(=O)CC(C)c2cc(NS(=O)(=O)Cc3ccc(C)cc3)cc(F)c21 (centres unmarked) [HQ31]	–	–	–	164	52
CCCN1C(=O)CCc2cc(NS(=O)(=O)Cc3ccc(C)cc3)cc(C#N)c21 [HQ41]	–	–	–	967	1450

SMILES	activity at 0.2 µM [1] [%]	activity at 0.2 µM [2] [%]	percent inhibition at 0.2 µM [3] [%]	IC50 [2] [nM]	IC50 [3] [nM]
CCN1C(=O)CC(C)c2cc(NS(=O)(=O)c3ccccc3)cc(F)c21 (centres unmarked) [HQ45]	–	–	–	> 10000	7730
C=CCN1C(=O)CC(C)c2cc(NS(=O)(=O)Cc3ccc(CC)cc3)cc(F)c21 (centres unmarked) [HQ33]	–	–	–	204	61
COCc1ccc(CS(=O)(=O)Nc2cc(F)c3c(c2)C(C)CC(=O)N3C(C)C)cc1 (centres unmarked) [HQ37]	–	–	–	227	33
CCN1C(=O)CC(C)c2cc(NS(=O)(=O)Cc3ccc(C#N)cc3F)cc(F)c21 (centres unmarked) [HQ42]	–	–	–	589	247
CCN1C(=O)CC(C)c2cc(NS(=O)(=O)Cc3ccc(C(F)(F)F)cc3)cc(F)c21 (centres unmarked) [HQ44]	–	–	–	2370	250
CCN1C(=O)CC(C)c2cc(NS(=O)(=O)Cc3ccc(Cl)cn3)cc(F)c21 (centres unmarked) [HQ54]	–	–	–	512	234
CCN1C(=O)CC(C)c2cc(NS(=O)(=O)Cc3ccc(Cl)s3)cc(F)c21 (centres unmarked) [HQ57]	–	–	–	953	94
CCN1C(=O)CC(C)c2cc(NS(=O)(=O)Cc3ccc(C)cc3F)cc(F)c21 (centres unmarked) [HQ48]	–	–	–	56	23
Cc1ccc(CS(=O)(=O)Nc2cc(F)c3c(c2)C(C)CC(=O)N3C(C)C)cc1 (centres unmarked) [HQ32]	–	–	–	408	40
CCN1C(=O)CC(C)c2cc(NS(=O)(=O)Cc3ccc(C)c(F)c3)cc(F)c21 (centres unmarked) [HQ52]	–	–	–	444	46
C=CCN1C(=O)CC(C)c2cc(NS(=O)(=O)Cc3ccc(COC)cc3)cc(F)c21 (centres unmarked) [HQ36]	–	–	–	126	32
CCN1C(=O)CC(C)c2cc(NS(=O)(=O)Cc3ccc(C)cn3)cc(F)c21 (centres unmarked) [HQ53]	–	–	–	153	160
CCN1C(=O)CC(C)c2cc(NS(=O)(=O)Cc3ccc(Cl)cc3Cl)cc(F)c21 (centres unmarked) [HQ43]	–	–	–	> 10000	2010
CCN1C(=O)CCc2cc(NS(=O)(=O)Cc3ccc(C)cc3)cc(F)c21 [HQ29]	–	–	–	17.2	83
CCCN1C(=O)CCc2c1ccc(NS(=O)(=O)Cc1ccc(C)cc1)c2F [HQ46]	–	–	–	694	1460
Cc1ccc(CS(=O)(=O)Nc2cc(F)c3c(c2)C(C)CC(=O)N3C2CC2)cc1 (centres unmarked) [HQ39]	–	–	–	1260	77
CCc1ccc(CS(=O)(=O)Nc2cc(F)c3c(c2)C(C)CC(=O)N3C(C)C)cc1 (centres unmarked) [HQ34]	–	–	–	462	26
CCN1C(=O)CC(C)c2cc(NS(=O)(=O)Cc3ccc(C)cc3)cc(F)c21 (centres unmarked) [HQ30, N-(1-ethyl-8-fluoro-4-methyl-2-oxo-3,4-dihydroquinolin-6-yl)-1-(p-tolyl)methanesulfonamide]	–	–	–	39.6	11
